Where a name gives a salt, the structure may show the parent alone.
Experiments:
HXB2-strain of HIV = test: Antiviral assay: protection of HIV-infected MT4 cells from virus-mediated cell death (MTT); type: cell-based; details: Human immunodeficiency virus 1, HXB2, MT4, 120 h, read-out: Antiviral Assay IC50
Method: Anti-HIV antiviral activity was assessed using an adaptation of the method of Pauwels et al. (J. Virol. Methods 1988 20:309-321). The method is based on the ability of compounds to protect HIV-infected T lymphoblastoid cells (MT4 cells) from cell-death mediated by the infection. The endpoint of the assay was calculated as the concentration of compound at which the cell viability of the culture was preserved by 50% (‘50% inhibitory concentration’, IC50). The cell viability of a culture was determined by the uptake of soluble, yellow 3-[4,5-dimethylthiazol-2-yl]-2,5-diphenyltetrazolium bromide (MTT) and its reduction to a purple insoluble formazan salt. After solubilization, spectrophotometric methods were employed to measure the amount of formazan product. […]
A fresh solution of 5 mg/mL MTT was prepared in 0.01 M phosphate buffered saline, pH 7.2 and 20 microliters added to each culture. […] When the formazan deposit was fully solubilized by further mixing, the absorbance (OD) of the cultures was measured at 540 nm and 690 nm wavelength (690 nm readings were used as blanks for artifacts between wells). The percent protection for each treated culture was then calculated from the equation: […]

| melting point | Compound | IC50 (HXB2-strain of HIV) |
| --- | --- | --- |
| 179 to 180 °C | CCc1ccc(OCc2n[nH]c(=O)n2C)c(F)c1Oc1cc(Cl)cc(C#N)c1 |  |
| 193 to 194 °C | Cn1c(COc2ccc(Br)c(F)c2Oc2cc(C#N)cc(C(F)F)c2)n[nH]c1=O |  |
| 160 to 161 °C | CCc1ccc(OCc2n[nH]c(=O)n2C)c(Oc2cc(C#N)cc(C(F)F)c2)c1F |  |
| 164 to 166 °C | CCc1cc(C#N)cc(Oc2c(OCc3n[nH]c(=O)n3C)ccc(CC)c2F)c1 |  |
| 166 to 168 °C | CCc1ccc(OCc2n[nH]c(=O)n2C)c(Oc2cc(C#N)cc(C3CC3)c2)c1F |  |
| 197.1 to 202.1 °C | Cn1c(COc2ccc(Br)c(F)c2Oc2cc(C#N)cc(CC(F)(F)F)c2)n[nH]c1=O |  |
| 184.5 to 185.3 °C | Cn1c(COc2ccc(Cl)c(Oc3cc(C#N)cc(C(F)F)c3)c2F)n[nH]c1=O |  |
| 192.5 to 193 °C | Cn1c(COc2ccc(Br)c(F)c2Oc2cc(Cl)cc(C#N)c2)n[nH]c1=O |  |
| 205.5 to 207 °C | Cn1c(COc2ccc(Br)c(F)c2Oc2cc(C#N)cc(C#N)c2)n[nH]c1=O |  |

Further lines, the compound ahead of its results:

| Compound | melting point | IC50 (HXB2-strain of HIV) |
| --- | --- | --- |
| Cn1c(COc2ccc(Cl)cc2C(=O)c2cc(Cl)cc(C#N)c2)n[nH]c1=O | 210 to 213.9 °C |  |
| Cn1c(COc2ccc(Br)c(Oc3cc(Cl)cc(C#N)c3)c2)n[nH]c1=O | 95.2 to 100.7 °C |  |
| Cn1c(CCc2ccc(Br)c(F)c2Oc2cc(Cl)cc(C#N)c2)n[nH]c1=O | 212.4 to 214.2 °C |  |
| Cn1c(COc2ccc(Cl)c(Oc3cc(Cl)cc(C#N)c3)c2Cl)n[nH]c1=O | 224.4 to 225.6 °C |  |
| Cn1c(COc2ccc(Cl)cc2Oc2cc(Cl)cc(C#N)c2)n[nH]c1=O | 176 to 177 °C |  |
| Cn1c(CCc2ccc(Br)c(Oc3cc(Cl)cc(C#N)c3)c2F)n[nH]c1=O | 186 to 187 °C |  |
| Cn1c(COc2ccc(Cl)c(Oc3cc(Cl)cc(C#N)c3)c2F)n[nH]c1=O (as salt: salt) [Compound I-2, 3-Chloro-5-[6-chloro-2-fluoro-3-(4-methyl-5-oxo-4,5-dihydro-1H-[1,2,4]triazol-3-ylmethoxy)-phenoxy]-benzonitrile; formate salt] | 221 to 225 °C |  |
| Cn1c(COc2ccc(Br)c(Oc3cc(C#N)cc(C(F)F)c3)c2F)n[nH]c1=O (as salt: salt) [Compound I-4, 3-[6-Bromo-2-fluoro-3-(4-methyl-5-oxo-4,5-dihydro-1H-[1,2,4]triazol-3-ylmethoxy)-phenoxy]-5-difluoromethyl-benzonitrile; trifluoro-acetic acid salt] | 199.2 to 201 °C |  |
| Cn1c(COc2ccc(Cl)c(Oc3cc(Cl)cc(C#N)c3)c2F)n[nH]c1=O [Compound I-2, 3-Chloro-5-[6-chloro-2-fluoro-3-(4-methyl-5-oxo-4,5-dihydro-1H-[1,2,4]triazol-3-ylmethoxy)-phenoxy]-benzonitrile; formate salt] |  | 1.5 nM |
| Cn1c(COc2ccc(Br)c(Oc3cc(C#N)cc(C(F)F)c3)c2F)n[nH]c1=O [Compound I-4, 3-[6-Bromo-2-fluoro-3-(4-methyl-5-oxo-4,5-dihydro-1H-[1,2,4]triazol-3-ylmethoxy)-phenoxy]-5-difluoromethyl-benzonitrile; trifluoro-acetic acid salt] |  | 0.7 nM |
